Data: patent US6702995B1, “Delivery system” (TheRyte, Ltd., priority 1997, dated 2004)

Key:
HELA cell line = test: Clonogenic cell survival assay, HELA; type: cell-based, human
Procedure: (§1) TAXOL (paclitaxel) is a powerful cytotoxic agent but is very difficult to use because it is almost insoluble in water or blood plasma. For in vivo or in vitro use, it is generally dissolved in dimethyl sulphoxide (DMSO) or in a complex commercial pharmaceutical preparation. […] The TAXOL (paclitaxel) concentration was varied over the range of 1 to 8nM. These carrier solutions were labeled “polymer” series. Similarly, the same range of TAXOL (paclitaxel) solution concentrations was prepared in neat dimethyl sulphoxide as solvent; these carrier solutions were labeled “DMSO” series. Finally, a series of commercially available pharmaceutical preparations was used, which contained TAXOL (paclitaxel) in the concentration range of 1 to 8 nM; these carrier solutions were labeled “commercial” series. […] The four series of solutions were compared for their cytotoxic action by a clonogenic cell survival assay using three human in vitro cell lines, viz., HELA (originally explanted from cancer of the cervix), HRT-18 (originally explanted from […]) and MGHU-1 (originally explanted from a bladder cancer).

HRT-18 cell line = test: Clonogenic cell survival assay, HRT-18; type: cell-based, human; conditions: HRT-18, clonogenic cell survival
Procedure: as §1

MGHU-1 cell line = test: Clonogenic cell survival assay, MGHU-1; type: cell-based, human; conditions: MGHU-1, clonogenic cell survival
Procedure: as §1

Procedure for cancer cells (Molt 4): Typically, for a porphyrin sensitizer, the concentration was determined by ultraviolet/visible measurement of absorption at the Soret wavelength near 420 nm.
The cell growth medium was prepared in three varieties. Each variety contained the nutrients required for cell growth. One variety contained neither sensitizer nor polymer, a second contained polymer but no sensitizer and a third contained both polymer and sensitizer.
The resulting solution was adjusted to pH 7.2 by careful addition of aqueous sodium hydroxide solution (5 M) and finally once more filtered through a 0.22 μm filter. The resulting solution was used as the growth medium containing both sensitizer and polymer in the following experiments. A growth medium containing only polymer was prepared as here but omitting the sensitizer, viz, instead of the sensitizer solution (85 mL), an equal volume of distilled water containing the same amount of polymer but no sensitizer was added. […]
For each growth medium, 10 mL of a suspension containing 10^7-10^8 cells/mL were centrifuged and the cells were resuspended in one of the growth media described above (45mL) to give three cell preparations: A, containing sensitizer plus polymer; B, containing neither sensitizer nor polymer; C, containing polymer but no sensitizer. […] Its amount could be determined by visible spectroscopy as described above. […]

Row | Structure (SMILES) | cytotoxic action (in words) (HELA cell line) | cytotoxic action (in words) (HRT-18 cell line) | cytotoxic action (in words) (MGHU-1 cell line) | cell growth (cell count) (cancer cells (Molt 4))
1 | COc1cc(NS(C)(=O)=O)ccc1Nc1c2ccccc2nc2ccccc12 [amsacrine] | effective | effective | effective | –
2 | C1=Cc2nc1c(-c1ccccc1)c1ccc([nH]1)c(-c1ccccc1)c1nc(c(-c3ccccc3)c3ccc([nH]3)c2-c2ccccc2)C=C1 [sensitizer, 5,10,15,20 tetrakis phenyl porphyrin] | – | – | – | not inhibited
